Source: patent US8263642B2, “Antimicrobial compounds and methods of use thereof” (Vanderbilt University, priority 2008, dated 2012)

Legend:
[1] = test system: HssRS-dependent hrtAB expression; experiment: Luminescence-based assay to monitor HssRS-dependent hrtAB expression (phrtABlux reporter), Newman; assay type: cell-based, Staphylococcus aureus; settings: Newman; for activation at 0.0825 µM: Staphylococcus aureus, NEWMAN, read-out: % Lumi, luminescence induced by the compound compared to the heme control (82.5 nM) in the same plate; for Luminescence: raw luminescence value obtained in a luminometer
Description: (§1) With reference to Table 1, “Luminescence” refers to the raw luminescence value obtained in a luminomter. “Control (82.5 nm)” refers to the luminescence value obtained from heme at 82.5 nM as a positive control in the same plate as the experimental. “% lum” is the percentage of luminescence induced by the compound as compared to the heme control in the same plate. […] All of these assays are described in the application. […] “N/T” indicates the test was not performed.
A hrtAB-driven expression system was created in the pXen vector system (Xenogen) (Francis, K. P., D. Joh, C. Bellinger-Kawahara, M. J. Hawkinson, T. F. Purchio, and P. R. Contag. 2000. Monitoring bioluminescent Staphylococcus aureus infections in living mice using a novel luxABCDE construct. Infect Immun 68:3594-3600). This vector contains a promoterless luxCDABE operon from Photorabdus luminescens which produces blue green light when expressed. The luxCDABE encodes for a fatty acid reductase (LuxCDE) that produces a long chain fatty aldehyde which, when combined with cellular flavin mononucleotide, is oxidized by a luciferase (LuxAB) to produce light. Therefore, this system is useful in that it bypasses the need for substrate addition and is capable of generating light in the absence of any added reagents. Furthermore, the luminescent signal produced by the combined activities of LuxAB and LuxCDE is of sufficient intensity to be visualized in unmanipulated intact bacteria.
To establish an assay that measures HssRS-dependent expression of luxCDABE, the promoter for hrtAB upstream of luxCDABE was cloned and transformed this vector (phrtABlux) into wildtype and ΔhssR S. aureus. A promoterless vector (plux) and a plasmid containing luxCDABE under the control of a constitutive promoter (psrtAlux) (Mazmanian, S. K., G. Liu, H. Ton-That, and O. Schneewind. 1999. “Staphylococcus aureus sortase, an enzyme that anchors surface proteins to the cell wall.” Science 285:760-763) were included as negative and positive controls, respectively. Initially, wildtype S. aureus harboring either plux, phrtABlux, or psrtAlux were plated on solid medium that either lacked heme or contained 4 μM heme. Only wildtype S. aureus containing psrtAlux produced light on solid media regardless of the presence or absence of heme. […] Light was not produced by bacteria containing plux in either condition.
To adapt this system for a HTS to measure ligand recognition by HssRS, luminescence of wildtype and ΔhssR harboring the above listed plasmids in liquid media with or without heme was measured. […] Taken together, these experiments establish a whole cell […] assay that can identify small molecule modifiers of HssRS. This screen, in some aspects, can identify molecules that can be used as molecular probes in structure-function analyses to determine the mechanism by which S. aureus sense host heme.
Upon staphylococcal exposure to heme, HssRS senses heme and activates expression of hrtAB. This process can be measured using a reporter assay that employs a vector encoding the light-producing luxCDABE operon under the control of the hrtAB promoter. This assay results in whole cell luminescence upon HssRS-dependent activation of hrtAB, forming the foundation for the development of an assay suitable for high-throughput screens for small molecule activators of HssRS.
To develop an automated HTS format, S. aureus wildtype and ΔhssR harboring reporter constructs (psrtAlux, phrtAlux, plux) can be grown for 15 hours at 37° C. in tryptic soy broth (TSB) containing 10 μg/ml chloramphenicol. The addition of chloramphenicol is useful to ensure that the staphylococci propagate the reporter plasmid upon cell division. Following growth, bacterial cultures can be normalized and 2×10^7 cells (approximately 2 μl) can be added to individual wells of black walled, clear bottomed, 96-well plates. […]

[2] = test system: hrtAB-driven expression of the xylE reporter gene; experiment: XylE reporter assay (hrtAB promoter-xylE), Newman; assay type: cell-based, Staphylococcus aureus; settings: for XylE (0.05): level of XylE induction at 0.05 uM of the compound; for XylE (0.5): level of XylE induction at 0.5 uM of the compound; for XylE (5.0): level of XylE induction at 5.0 uM of the compound; for XylE (50.0): level of XylE induction at 50.0 uM of the compound
Description: as §1
Compounds that activate HssRS-driven hrtAB expression in the luciferase-based screen can be subjected to two separate counter screens to confirm these compounds as active hits. First, compounds of interest can be tested for their ability to activate expression of hrtAB in the XylE expression assay described hereinbelow. This is an in vitro assay that measures hrtAB-driven expression of the xylE reporter gene. The XylE-based reporter assay utilizes slightly more manipulations than the primary luciferase-based screen. […] It should be appreciated that a shortcoming of this counter screen is that it measures reporter gene expression, which is a similar activity as that measured in the primary assay. To address this shortcoming, compounds that are positive in both XylE- and luciferase-based assays can be subjected to a second counter screen as described hereinbelow.
S. aureus strains harboring the appropriate reporter construct were inoculated into 500 μl of TSB containing 10 μg/ml chloramphenicol in 1.5 ml tubes. Cultures were grown O/N at 37° C. with shaking. Bacteria were pelleted by centrifugation and spent medium was aspirated. The pellet was washed once with 500 μl of 20 mM potassium phosphate, pH 7.6, and resuspended in 150 μl of 100 mM potassium phosphate buffer, pH 8.0, 10% (v/v) acetone, 25 μg/ml lysostaphin. After 20 minute incubation at 37° C. and 5 minute incubation on ice, samples were centrifuged at 20,000 g for 30 minutes at 4° C. 1-10 μl of supernatant was added to a 96-well plate and 200 μl of 100 mM potassium phosphate, pH 8.0, 0.2 mM pyrocatechol was added to each well. Formation of 2-hydroxymuconic semialdehyde was tracked by measuring the absorbance at 375 nm every minute for 30 minutes on a Varian MP 50 microplate reader. Protein concentration in samples was determined by BCA (Pierce). One unit of specific activity of XylE in a sample is defined as the formation of 1 nmol of 2-hydroxymuconic semialdehyde per minute per milligram of cellular protein at 30° C. (Chien, Y., Manna, A. C., Projan, S. J., and Cheung, A. L. 1999, “SarA, a global regulator of virulence determinants in Staphylococcus aureus, binds to a conserved motif essential for sar-dependent gene regulation. J. Biol. Chem. 274, 37169-37176).
The hrtAB intergenic region was fused to the xylE structural gene by PCR-SOE. In the first reaction, primer P1B:[…] and P2B:[…] were used to amplify the hrtAB intergenic region from S. aureus strain Newman genomic DNA. In the second PCR reaction primers P3B:[…] and P4B:[…] were used to amplify the xylE structural gene using pALC1639 template DNA (provided by Dr. Ambrose Cheung) and PCR product purified using a Qiagen gel extraction kit. For the PCRSOE reaction, a 1:300 dilution of purified reaction 1 and reaction 2 PCR products was mixed and amplified by PCR using […]. This yielded a construct in which the hrtAB intergenic region is fused to the xylE gene in such a manner that the position of the start codon for xylE corresponds to the position of the start codon for […] in the hrtAB locus. The hrtAB promoter-xylE fusion DNA was then subcloned into pOS1. As a control we also constructed a promoterless xylE vector. The xylE gene was amplified from pACL1639 template DNA using the primers P1C:[…] and P2C:[…] and then cloned into the pOS1 vector.

SMILES	activation at 0.0825 µM [1]	Luminescence [1]	XylE (0.05) [2]	XylE (0.5) [2]	XylE (5.0) [2]	XylE (50.0) [2]
C=CCc1ccccc1Oc1ccc(C(F)(F)F)cn1	27.5%	1474	0.08	0.02	0.07	0.09
CC1(C)CC(=O)C(=CNCc2ccc(F)cc2)C(=O)C1	120%	1003	0.07	0.09	0.9	0.06
CSc1ccc(NC=C2C(=O)CC(C)(C)CC2=O)cc1	161%	1347	0.04	0.05	0.01	1
C/C=C/C=N/Nc1nnc2c(n1)[nH]c1ccccc12	202%	1696	0.04	0.06	0.1	1
O=C1c2ccccc2C(=O)C1C1=NNC(c2ccccc2)C1 (centres unmarked)	81.7%	2680	0.05	0.06	0.1	0.8
COc1ccc(/N=c2\nc(-c3ccccc3)n(-c3ccc(C)cc3)s2)cc1	266%	757	0.02	0.04	0	0
O=C(Nc1ccc(NC(=O)c2ccccc2)c(Cl)c1)c1ccccc1	102%	291	0.06	0.05	0.07	0.02
Cc1cc(-c2ccc(N)cc2)nc2ccc3ccccc3c12	136%	576	0.09	0.06	0.02	0.04
Cc1cccc(NC(=O)c2cc3ccccc3cc2O)c1	217%	794	0.02	0.09	0.1	0.02
CC(/C=N/NC(=O)C1COc2ccccc2O1)=C\c1ccccc1 (centres unmarked)	139%	507	0.07	0.04	0.2	0.05
Cc1cccc(NC(=S)N/N=C/c2cc(Br)ccc2O)c1	161%	589	0.09	0.2	0	0
NS(=O)(=O)c1ccc(NC(=O)CCCOc2ccc(Cl)cc2Cl)cc1	45.6%	325	0.03	0.05	3	0
O=C(Nc1ccccc1C(=O)Nc1ccc(Cl)cc1)c1ccccc1	92%	309	0.05	0.08	0.08	0.06
O=C(COc1nsnc1N1CCOCC1)Nc1ccccc1	207%	1594	–	0.05	0.02	0.03
COC(=O)C1=C(C)NC(=O)NC1c1cn(-c2ccccc2)nc1-c1ccc(OC)c(OC)c1 (centres unmarked)	866%	1854	–	0.04	0.03	0.05
Cc1ccc(CNC(=O)c2ccc(CSCc3ccccc3Cl)o2)cc1	192%	1603	–	0.08	0.7	0.8
Cc1ccc(Nc2nc(-c3ccccc3O)nc3ccccc23)cc1	360%	1922	–	0.04	0.1	0.08
